Measured values taken from patent publication US7553821B2, “Methods for selectively modulating survivin apoptosis pathways” (Yale University, priority 2000, dated 2009).

Test system: YUSAC-2 melanoma cells
Experiment: Apoptosis in Tet-regulated YUSAC-2 transfectants (DNA content, TUNEL, caspase-9 Western blot)
Type: cell-based, human
Conditions: for G2/M and apoptotic (sub-G1) DNA content after transgene induction: stably transfected YUSAC-2 lines, Tet withdrawn (transgene expressed)
Method: Three YUSAC-2 melanoma cell lines stably transfected with survivin(T34A) in pTet splice were analyzed for DNA content by propidium iodide staining and flow cytometry in the presence (Tet+) or absence (Tet−) of Tet. The percentages of cells with sub-G1 (apoptotic) DNA content after a 3-d culture at 37° C. are indicated.
The experimental conditions are the same as in A, except that a subclone of YUSAC-2 transfectants, F5.C4 was analyzed in the presence (Tet+) or in the absence (Tet−) of Tet for internucleosomal DNA fragmentation by end-labeling with terminal deoxynucleotidyl transferase (TdT) and a peroxidase-conjugated anti-digoxigenin antibody.
Tet+ and Tet− F5.C4 cells characterized as described in FIG. 4, were harvested at the indicated time intervals after thymidine release and immunoblotted with an antibody to caspase-9. TNF+CHX, extract of HeLa cells treated with 10 ng/ml TNFα plus 10 μg/ml cycloheximide. Arrows, position of ˜46 kDa proform caspase-9, and ˜35 kDa and ˜37 kDa active caspase-9 bands.
Cells were then fixed, permeabilized and stained with propidium iodide for DNA content as described (Grossman et al., 1999). The marker indicates the sub-G1 fraction, corresponding to apoptotic cells.
Cells were fixed in 1% paraformaldehyde for 10 minutes at room temperature and then permeabilized with acetic acid and ethanol for 5 minutes at […]. Arrows indicate TUNEL-reactive (Shockett et al., 1995) cells with apoptotic morphology.
Transfection experiments. For transient transfection, HeLa cells in C-6 tissue culture plates (Costar, Cambridge, Mass.) at ˜60-70% confluency, were incubated in 1 ml of serum-free OptiMEM medium (Life Technologies, Gaithersburg, Md.) for 20 min, and transfected with 2.5 μg of the various plasmid cDNAs plus 9 μl Lipofectamine (Life Technologies). After a 5 h incubation at 37° C., the mixture was aspirated and substituted with complete growth medium for 48-72 h. To generate stable YUSAC-2 transfectants, a survivin(T34A) cDNA was inserted into the HindIII-SpeI sites of the pTet-splice vector (Dr. D. Schatz, Yale University School of Medicine), downstream of the regulatory sequences of the Tet-resistance operon (TetO). YUSAC-2 cells were transfected with 0.8 μg pTet-T34A, 0.8 μg of the transactivation/selection plasmid ptTA-Neo and 5 μl Lipofectamine in 1 ml of OptiMem. Forty-eight h after transfection, cells were re-plated at low density in 15×150 mm plates in growth medium containing 1.5 mg/ml Geneticin (G418, Life Technologies), 2 mM sodium hydroxide and 0.5 μg/ml Tet (Sigma, St. Louis, Mo.) (selection medium). […] Gated GFP-expressing cells were analyzed for DNA content by flow cytometry on a FACSort (Becton Dickinson, San Jose, Calif.) using a Cell Quest software. […]

“survivin(T34A): dominant-negative, non-phosphorylatable survivin mutant with Thr34→Ala substitution, expressed from transfected cDNA (also HA- or GFP-tagged)” was tested, and the “internucleosomal DNA fragmentation by TUNEL” value (F5.C4 cells, Tet-deprived) was “stained intensely for internucleosomal DNA fragmentation by TUNEL”, the “caspase-9 processing by Western blotting” value (cell cycle synchronized Tet− F5.C4 cells after thymidine release) was “time-dependent cleavage of 46 kDa proform caspase-9 and generation of ˜35 kDa and ˜37 kDa active caspase-9 bands” and the “G2/M and apoptotic (sub-G1) DNA content after transgene induction” value was “nearly complete loss of mitotic (G2/M) cells, and appearance of a prominent population with apoptotic (sub-G1) DNA content”. For the same substance, the “G2/M and apoptotic (sub-G1) DNA content after transgene induction” value (listed as Thr^34→Ala mutant) was “progressive time-dependent loss of mitotic (G2/M) cells and coincident accumulation of apoptotic cells”.
